# “Also recorded” adds a separate entry of the source. Where two headings read alike, the source gives them in different places.
# Experiments:
# Lebergefäße am Kaninchen = experiment: Embolisation of the liver vessels in the rabbit, followed by X-ray; assay type: in vivo
# Experimental: Als gut darstellbare Gefäße wurden die Lebergefäße am Kaninchen embolisiert.
# Dem narkotisierten Tier wurde ein Katheter (60 cm lang, 1,5 mm Øa) über die A. femoralis bis in die Leberarterie durch die Aorta vorgeschoben. Die Lösung von Gadoliniumkomplex aus Beispiel 1c) (50 mmol/L mit 150 mg J/ml Isovist ®) wurde mit 160 µL/min appliziert. Gesamtvolumen 800 µL. Anschließend wurde der Katheter in die Aorta zurückgezogen, um die arterielle Blutversorgung der Leber im weiteren Verlauf nicht zu beeinträchtigen. […] Zum Teil ist die Abnahme der Signalintensität auf ein Herausdiffündieren des Röntgenkontrastmittels Isovist ® zurückzuführen.
# Nierengefäße der Ratte = experiment: Embolisation of the renal vessels in the rat, followed by X-ray; assay type: in vivo
# Experimental: Als gut darstellbare Gefäße wurden die Nierengefäße der Ratte embolisiert.
# Dem Tier wurde ein Katheter (20 cm lang, 0,58 mm Øi in die A. mesentrerica eingebunden und in die A. renalis der linken Niere vorgeschoben. Die Lösung der Verbindung aus Beispiel 1 c) (hier 50 mmol/1 mit 150 mg J/ml Isovist ®) wurde mit 160 µl/min appliziert. Gesamtvolumen 250 µl. Anschließend wurde der Katheter in die A. mesenterica zurückgezogen, um die Blutversorgung der Nieren im weiteren Verlauf nicht zu beinträchtigen. […] Zur Kontrolle der Nierendurchblutung wurde 1 Stunde nach der lokalen Applikation der Verbindung aus Beispiel lc) 400 µl des nierengängigen Röntgenkontrastmittels Ultravist ® 300 mg J/ml i.v. in die Schwanzvene gegeben.
# Direkt nach intraarterieller, lokaler Gabe von 250 µl einer Lösung der Verbindung aus Beispiel 1 c) (50 mmol/L + 150 mg J/ml Isovist ® )in die katherisierte Nierenarterie (linke Niere, im Bild rechts)
# 5' p.a. Ultravist ®, 400 µl i.v. 1 Stunde nach lokaler Gabe der Verbindung aus Beispiel 1c) wurde Ultravist ® über die Schwanzvene gegeben.
# [1] = T1 relaxivity at 20 MHz, 37°C; assay type: physicochemical
# Experimental: c) Gadolinium-Komplex von 10-[2-Hydroxy-4-aza-5-oxo-7-aza-7-(perfluoroctylsulfonyl)-nonyl]-1,4,7-tris(carboxymethyl)-1,4,7,10-tetraazacyclododecan 10 g (17,09 mmol) der Titelverbindung aus Beispiel 1b) und […] (18,79 mmol) N-Hydroxysuccinimid werden in einer Mischung aus 50 ml Dimethylformamid/50 ml Chloroform gelöst. Bei 0°C gibt man 3,88 g (18,79 mmol) Dicyclohexylcarbodiimid zu und rührt 1 Stunde bei 0°C, anschließend 3 Stunden bei Raumtemperatur. Man kühlt erneut auf 0°C und gibt 5,19 g (51,27 mmol) Triethylamin/50 ml 2-Propanol zu. Anschließend werden 10,78 g (18,79 mmol) Gadolinium-Komplex von 10-(3-Amino-2-hydroxy-propyl)-1,4,7-tris(carboxymethyl)-1,4,7,10-tetraazacyclododecan (WO 95/17451) gelöst in 50 ml Wasser zugegeben und 3 Stunden bei Raumtemperatur gerührt. Man dampft zur Trockne ein, nimmt den Rückstand in einer Mischung aus 200 ml Methanol/100 ml Chloroform auf und filtriert vom Dicyclohexylharnstoff ab. Das Filtrat wird zur Trockne eingedampft und durch RP-Chromatographie gereinigt (RP-18/Laufmittel: Gradient aus Wasser/n-Propanol/ Acetonitril). Ausbeute: 16,37 g (78 % d. Th.) eines farblosen glasigen Feststoffes Wassergehalt: 7,1 % T1-Relaxivität (L/mmol·sec) bei 20 MHz, 37°C: 41 (Wasser) 49 (Humanplasma)
# e) Mangan-Komplex von 10-[2-Hydroxy-4-aza-5-oxo-7-aza-7-(perfluoroctylsulfonyl)-nonyl]-1,4,7-tris(carboxymethyl)-1,4,7,10-tetraazacyclododecan (als Natriumsalz) 5 g (5,07 mmol) der Titelverbindung aus Beispiel ld) werden in 100 ml Wasser gelöst und 0,58 g (5,07 mmol) Mangan(II) -carbonat zugegeben. Man rührt3 Stunden bei 80°C. Die Lösung wird filtriert und das Filtrat mit 1 N Natronlauge auf pH 7,2 gestellt, anschließend wird gefriergetrocknet. Ausbeute: 5,87 g (quantitativ) eines farblosen amorphen Pulvers Wassergehalt: 8,4 % T1-Relaxivität (L/mmol·sec) bei 20 MHz, 37°C: 2,7 (Wasser) 4,2 (Humanplasma)
# c) Gadolinium-Komplex von 10-[2-Hydroxy-4-aza-5-oxo-7-oxa-10,10,11,11,12,12,13,13,14,14,15,15,16,16,17,17,17-heptadecafluor-heptadecyl]-1,4,7-tris(carboxymethyl)-1,4,7,10-tetraazacyclododecan 7,0 g (13,41 mmol) der Titelverbindung aus Beispiel 2b) und 1,70 g (14,75 mmol) N-Hydroxysuccinimid werden in einer Mischung aus 30 ml Dimethylformamid/ 20 ml Chloroform gelöst. Bei 0°C gibt man 3,04 g (14,75 mmol) Dicyclohexylcarbodiimid zu und rührt 1 Stunde bei 0°C, anschließend 3 Stunden bei Raumtemperatur. Man kühlt erneut auf 0°C und gibt 4,48 g (44,25 mmol) Triethylamin/50 ml 2-Propanol zu. Anschließend werden 8,46 g (14,75 mmol) Gadolinium-Komplex von 10-(3-Amino-2-hydroxy-propyl)-1,4,7-tris(carboxymethyl)-1,4,7,10-tetraazacyclododecan gelöst in 40 ml Wasser zugegeben und 3 Stunden bei Raumtemperatur gerührt. Man dampft zur Trockne ein, nimmt den Rückstand in einer Mischung aus 100 ml Methanol/30 ml Chloroform auf und filtriert vom Dicyclohexylharnstoff ab. Das Filtrat wird zur Trockne eingedampft und durch RP-Chromatographie gereinigt (RP-18/Laufmittel: Gradient aus Wasser/n-Propanol/Acetonitril). Ausbeute: 11,8 g (75 % d. Th.) eines farblosen glasigen Feststoffes Wassergehalt: 8,2 % T1-Relaxivität (L/mmol·sec) bei 20 MHz, 37°C: 19 (Wasser) 33 (Humanplasma)
# c) Gadolinium-Komplex von 10-[-2Hydroxy-4-oxa-1H,1H,2H,3H,3H,5H,5H,6H,6H-perfluor-tetradecyl]-1,4,7-tris(carboxymethyl)-1,4,7,10-tetraazacyclododecan 10 g (11,54 mmol) der Titelverbindung aus Beispiel 3b) werden in einer Mischung aus 100 ml Wasser/50 ml 2-Propanol gelöst und 2,09 g (5,77 mmol) Gadoliniumoxid zugegeben. Man rührt 3 Stunden bei 80°C. Die Lösung wird filtriert und im Vakuum zur Trockne eingedampft. Ausbeute: 12,48 g (quantitativ) eines glasigen Feststoffes Wassergehalt: 5,6 % T1-Relaxivität (L/mmol·sec) bei 20 MHz, 37°C: 15,2 (Wasser) 27,5 (Humanplasma)
# VX-2 Tumorzellen = experiment: Therapy of a liver carcinoma in the rabbit (chemoembolisation, MRI control); assay type: in vivo, Chinchilla-Kaninchen; settings: rabbit VX-2 liver tumour, 75 mmol/l solution with 50 mg Cisplatin, 8 ml via catheter, MRI after 7 days; control animals 3,7 ± 1,5
# Experimental: Fünf männlichen Chinchilla-Kaninchen wurde durch Injektion von VX-2 Tumorzellen in den linken Leberlappen ein Tumor gesetzt. Dem narkotisiertem Tier wurde ein Katheter (60 cm lang, 1 mm Øa) über die Arteria femoralis bis in die Nähe des Tumors vorgeschoben. Dann wurde eine Lösung der Titelverbindung aus Beispiel 1 c [75 mmol/l mit 50 mg Cisplatin (=[…]) appliziert. Gesamtvolumen 8 ml.
# Anschließend wurde der Katheter entfernt. Nach 7 Tagen wurden die Tiere mittels MRI untersucht. Es zeigte sich, daß der Tumor sich in seiner Größe verringert hat (durchschnittlicher Wachstumsfaktor 0,8 ± 0,2). Bei den Kontrolltieren (3 Tiere) wurden jedoch Wachstumsraten von 3,7 ± 1,5 beobachtet.
# [2] = gut löslich at this concentration, free-flowing solution
smiles,measurement,setting,value
"CCN(CC(=O)NCC(O)CN1CCN(CC(=O)[O-])CCN(CC(=O)[O-])CCN(CC(=O)[O-])CC1)S(=O)(=O)C(F)(F)C(F)(F)C(F)(F)C(F)(F)C(F)(F)C(F)(F)C(F)(F)C(F)(F)F.[Gd+3] (centres unmarked) [Beispiel 1c), Gadolinium-Komplex von 10-[2-Hydroxy-4-aza-5-oxo-7-aza-7-(perfluoroctylsulfonyl)-nonyl]-1,4,7-tris(carboxymethyl)-1,4,7,10-tetraazacyclododecan]",Abgrenzung der Gefäße der Leber in Röntgenaufnahmen,Lebergefäße am Kaninchen; 800 µL of 50 mmol/L solution with 150 mg J/ml Isovist into liver artery at 160 µL/min,scharf gegenüber dem Leberparenchym abgegrenzt
same,Signalintensität der Gefäße in der Leber,Lebergefäße am Kaninchen; within 60 minutes after administration,nur langsam ab
same,Abgrenzung der Gefäße der linken Niere in Röntgenaufnahmen,Nierengefäße der Ratte; 250 µl of 50 mmol/1 solution with 150 mg J/ml Isovist into A. renalis at 160 µl/min,scharf gegenüber dem Nierenparenchym abgegrenzt
same,Enhancement der embolisierten linken Niere und ihres Harnleiters,"Nierengefäße der Ratte; 400 µl Ultravist 300 mg J/ml i.v. 1 hour after local application, non-embolised right kidney enhanced",kein Enhancement; also recorded: bleibt dunkel
same,Signalintensität der Gefäße in der Niere,"Nierengefäße der Ratte; up to 45 minutes after administration, attributed to Isovist diffusing out",deutlich ab
same,T1-Relaxivität,[1]; Humanplasma,49 L/mmol/s
same,T1-Relaxivität,[1]; Wasser,41 L/mmol/s
same,durchschnittlicher Wachstumsfaktor des Tumors,VX-2 Tumorzellen,"0,8 ± 0,2"
same,Applizierbarkeit der Lösung,"100 mmol/1 in water with 100 mg J/ml Isovist, 20 cm, 0,58 mm Øi tube at 160 µl/min",problemlos
same,Konsistenz der Lösung,100 mmol/1 solution in water with 100 mg J/ml Isovist,klar durchsichtig und besitzt eine gelartig feste Konsistenz
same,Applizierbarkeit der Lösung,"100 mmol/L in water, by hand or infusion pump through a 20 cm, 0.58 mm Øi tube at 160 µL/min",problemlos
same,Konsistenz der Lösung,100 mmol/L solution in water,klar durchsichtig und besitzt eine gelartig feste Konsistenz
same,Konsistenz mit Zusatz von Harnstoff,"8 mol/L Harnstoff (final), also at substance concentration 400 mmol/L",frei fließende Lösung
same,Löslichkeit in 96% Ethanol,"96% Ethanol, free-flowing solution",> 500 mmol/L
same,Löslichkeit in Rinderplasma,"Rinderplasma, solution of comparable consistency",ebenso löslich wie in reinem Wasser
same,Einfluß auf die Konsistenz der Zubereitung,"addition of 10 mmol/L HCl or NaOH, or 3 mol/L NaCl",keinen Einfluß auf die Konsistenz
same,Veränderung der Konsistenz durch Triton X-100,"aqueous formulation, Triton X-100, 1.7%",Verflüssigung der gelartigen Konsistenz
same,Veränderung der Konsistenz durch Tween 80,"aqueous formulation, Tween 80, 4.6% final concentration",keine Veränderung der Konsistenz
same,Löslichkeit in 66% DMSO/Wasser,[2],≥ 150 mmol/L
same,Löslichkeit in 66% Propylenglycol/Wasser,[2],≥ 250 mmol/L
same,concentration below which a frei fließende Lösung results,"in water, printed as 'Unterhalb von etwa'",10000 to 20000 µM
same,Löslichkeit in reinem DMSO,pure DMSO,praktisch unlöslich
same,Löslichkeit in reinem Propylenglycol,pure Propylenglycol,praktisch unlöslich

# From patent EP0882010B1, “PHARMACEUTICAL AGENTS CONTAINING PERFLUOROALKYL-CONTAINING METAL COMPLEXES AND THE USE THEREOF IN TUMOUR THERAPY AND INTERVENTIONAL RADIOLOGY” (SCHERING AKTIENGESELLSCHAFT, priority 1996, dated 1997)
